Patent US8658165B2, “Method of treating aberrant mucus production in respiratory disease” (Novartis AG, priority 2007, dated 2014)

Columns and labels:
ErbB2/ErbB3 heterodimer = ErbB2/ErbB3 heterodimer (Homo sapiens, UniProt P21860); details: greater affinity than for ErbB3 homodimers; cited from earlier work
[1] = tested on: Human Bronchial Epithelial Cells (HBECs); assay: Effect of NRG1 isoforms on MUC5AC and MUC5B protein (goblet cell formation) in HBECs at air-liquid interface, immunohistochemistry; format: cell-based; details: HBECs at ALI, 7 days
Experimental: (§1) Human Bronchial epithelial cells (HBECs; Cambrex) were cultured in bronchial epithelial cell growth medium (BEGM; Cambrex) supplemented with the provided singlequots essentially as described in [Atherton et al, 2003]. For differentiation, cells were grown on 0.4 μm pore size, 12 mm TRANSWELL® inserts (Costar) at a cell density of 8.25×10^4 cells/insert in differentiation medium. Differentiation medium contained 50% BEGM and 50% Dulbeccos' modified Eagle's medium (DMEM) and was supplemented with 52 μg/ml bovine pituitary extract, 5 μg/ml insulin, 0.5 μg/ml hydrocortisone, 10 μg/ml transferrin, 0.5 μg/ml epinephrine 0.5 ng/ml human EGF, 50 μg/ml gentamicin and 50 nM retinoic acid. Cells were maintained submerged for 7 days then grown at air-liquid interface (ALI) for 7-14 days and medium was replenished every 2-3 days. Cells were treated with NRG1α or NRG1β1 (R&D SYSTEMS®) during the ALI culture period, added to the basolateral chamber of the TRANSWELL® inserts. At all stages cells were maintained at 37° C. in the presence of 5% CO2 in an air incubator.
After 7 days (unless otherwise stated) of differentiation at ALI, the apical surface of the HBECs was washed gently with PBS and fixed with neutral buffered formalin and wax embedded. Inserts were sectioned at 3 μm thickness and stained with either an anti-MUC5AC antibody (45M1; LABVISION®) or anti-MUC5B monoclonal antibodies using a DABMAP protocol on a VENTANA® XT immunostainer and counterstained with 1% alcian blue in 3% acetic acid, pH 2.5. The area of staining was assessed using a ZEISS® Axioplan 2 microscope (×10 magnification) with an Imaging Associated KS400 image analyzer (Imaging Associates). Fourteen fields were scored for each sample. Data are presented as goblet cell density, which was defined as the ratio of stained area (μm^2) to length (μm) of epithelium scored. Custom made anti-MUC5B monoclonal antibodies were obtained from the Hybridoma Core Laboratory, University of Florida and were raised against the peptide SWYNGHRPEPGLG (SEQ ID NO:11).

ErbB3 = ErbB3 (Homo sapiens, UniProt P21860); details: higher affinity than NRG1a; cited from earlier work
ErbB3, sequence (P21860 20-1342): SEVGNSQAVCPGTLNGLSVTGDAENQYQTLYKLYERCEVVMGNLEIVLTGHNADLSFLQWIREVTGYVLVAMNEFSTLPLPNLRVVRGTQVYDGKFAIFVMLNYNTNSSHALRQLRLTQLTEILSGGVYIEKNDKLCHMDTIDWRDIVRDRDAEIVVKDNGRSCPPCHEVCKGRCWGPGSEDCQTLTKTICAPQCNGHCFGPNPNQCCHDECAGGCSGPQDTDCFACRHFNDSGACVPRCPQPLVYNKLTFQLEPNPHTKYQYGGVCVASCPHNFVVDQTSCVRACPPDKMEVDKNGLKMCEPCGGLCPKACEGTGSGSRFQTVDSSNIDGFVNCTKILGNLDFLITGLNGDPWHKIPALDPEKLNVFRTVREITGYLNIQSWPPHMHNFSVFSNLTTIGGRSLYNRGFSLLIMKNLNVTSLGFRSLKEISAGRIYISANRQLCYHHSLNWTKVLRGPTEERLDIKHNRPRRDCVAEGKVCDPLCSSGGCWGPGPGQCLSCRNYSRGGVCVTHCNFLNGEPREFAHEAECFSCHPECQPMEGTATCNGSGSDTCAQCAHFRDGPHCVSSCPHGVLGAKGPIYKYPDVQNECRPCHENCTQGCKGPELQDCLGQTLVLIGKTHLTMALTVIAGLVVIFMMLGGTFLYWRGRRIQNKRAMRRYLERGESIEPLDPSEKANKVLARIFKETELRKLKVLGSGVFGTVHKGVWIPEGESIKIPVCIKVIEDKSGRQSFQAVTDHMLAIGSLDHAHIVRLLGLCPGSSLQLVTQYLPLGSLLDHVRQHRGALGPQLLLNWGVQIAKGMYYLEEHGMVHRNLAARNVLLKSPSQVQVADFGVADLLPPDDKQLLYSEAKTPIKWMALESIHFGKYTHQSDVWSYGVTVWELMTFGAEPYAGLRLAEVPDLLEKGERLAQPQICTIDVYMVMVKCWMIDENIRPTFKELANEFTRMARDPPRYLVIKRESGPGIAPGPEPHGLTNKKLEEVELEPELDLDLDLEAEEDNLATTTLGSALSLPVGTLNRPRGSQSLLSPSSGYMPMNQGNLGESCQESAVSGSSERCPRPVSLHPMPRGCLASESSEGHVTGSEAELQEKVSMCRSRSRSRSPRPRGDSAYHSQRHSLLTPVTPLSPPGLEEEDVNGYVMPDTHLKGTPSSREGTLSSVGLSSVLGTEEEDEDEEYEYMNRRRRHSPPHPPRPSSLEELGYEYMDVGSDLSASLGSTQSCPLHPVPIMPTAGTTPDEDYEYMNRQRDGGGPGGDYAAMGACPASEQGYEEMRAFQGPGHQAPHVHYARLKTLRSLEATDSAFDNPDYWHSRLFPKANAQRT

[2] = tested on: Human Bronchial Epithelial Cells (HBECs); assay: Inhibition of NRG1β1-induced goblet cell formation (MUC5AC and MUC5B protein by histology) in HBECs; format: cell-based; details: inhibitor at 10 μM, NRG1β1 50 nM, 7 days at ALI
Experimental: as §1, with “Cells were treated with NRG1α or NRG1β1 (R&D SYSTEMS®) during the ALI culture period, added to the basolateral chamber of the TRANSWELL® inserts. At all stages cells were maintained at 37° C. in the presence of 5% CO2 in an air incubator.” left out
After 7 days (unless otherwise stated) of differentiation at ALI, the apical surface of the HBECs was washed gently with PBS and fixed with neutral buffered formalin and wax embedded. […] The area of staining was assessed using a ZEISS® Axioplan 2 microscope (×10 magnification) with an Imaging Associated KS400 image analyzer (Imaging Associates). Fourteen fields were scored for each sample. Data are presented as goblet cell density, which was defined as the ratio of stained area (μm^2) to length (μm) of epithelium scored. […]

Row | Molecule | affinity for the ErbB2/ErbB3 heterodimer relative to ErbB3 homodimers (ErbB2/ErbB3 heterodimer) [fold] | increase in MUC5AC protein over vehicle levels ([1]; 50 nM, histology) [fold] | increase in MUC5B protein ([1]; 50 nM, immunohistochemistry) [fold] | effect on MUC5AC protein ([1]; increasing concentrations, histology) | affinity for ErbB3 relative to NRG1a (ErbB3) [fold] | effect on NRG1β1-induced increase in MUC5AC protein [2] | effect on NRG1β1-induced increase in MUC5B protein [2]
1 | NRG1β1: Neuregulin-1 isoform β1 protein (R&D SYSTEMS) added to HBEC cultures | 100 | 3 | 9.8 | dose-dependent increase | 100 |  | 
2 | CCN1CCN(Cc2ccc(-c3cc4c(N[C@H](C)c5ccccc5)ncnc4[nH]3)cc2)CC1 [pan-ErbB receptor inhibitor] |  |  |  |  |  | significantly inhibited | significantly inhibited
